Test results published in patent US6440978B2, “Therapeutic agent for dermatitis” (Nippon Zoki Pharmaceutical Co., Ltd., priority 2000, dated 2002).

What was measured:
[1] = molecular target: T1, phosphodiesterase type III (Homo sapiens, UniProt Q14432); assay: Inhibitory action against phosphodiesterase type III; format: biochemical; details: 100 μM; PDE III from human platelets
T1 construct: phosphodiesterase type III […] partially purified from human platelets; from tissue; host or cells: human platelets
T1 sequence (Q14432 whole entry): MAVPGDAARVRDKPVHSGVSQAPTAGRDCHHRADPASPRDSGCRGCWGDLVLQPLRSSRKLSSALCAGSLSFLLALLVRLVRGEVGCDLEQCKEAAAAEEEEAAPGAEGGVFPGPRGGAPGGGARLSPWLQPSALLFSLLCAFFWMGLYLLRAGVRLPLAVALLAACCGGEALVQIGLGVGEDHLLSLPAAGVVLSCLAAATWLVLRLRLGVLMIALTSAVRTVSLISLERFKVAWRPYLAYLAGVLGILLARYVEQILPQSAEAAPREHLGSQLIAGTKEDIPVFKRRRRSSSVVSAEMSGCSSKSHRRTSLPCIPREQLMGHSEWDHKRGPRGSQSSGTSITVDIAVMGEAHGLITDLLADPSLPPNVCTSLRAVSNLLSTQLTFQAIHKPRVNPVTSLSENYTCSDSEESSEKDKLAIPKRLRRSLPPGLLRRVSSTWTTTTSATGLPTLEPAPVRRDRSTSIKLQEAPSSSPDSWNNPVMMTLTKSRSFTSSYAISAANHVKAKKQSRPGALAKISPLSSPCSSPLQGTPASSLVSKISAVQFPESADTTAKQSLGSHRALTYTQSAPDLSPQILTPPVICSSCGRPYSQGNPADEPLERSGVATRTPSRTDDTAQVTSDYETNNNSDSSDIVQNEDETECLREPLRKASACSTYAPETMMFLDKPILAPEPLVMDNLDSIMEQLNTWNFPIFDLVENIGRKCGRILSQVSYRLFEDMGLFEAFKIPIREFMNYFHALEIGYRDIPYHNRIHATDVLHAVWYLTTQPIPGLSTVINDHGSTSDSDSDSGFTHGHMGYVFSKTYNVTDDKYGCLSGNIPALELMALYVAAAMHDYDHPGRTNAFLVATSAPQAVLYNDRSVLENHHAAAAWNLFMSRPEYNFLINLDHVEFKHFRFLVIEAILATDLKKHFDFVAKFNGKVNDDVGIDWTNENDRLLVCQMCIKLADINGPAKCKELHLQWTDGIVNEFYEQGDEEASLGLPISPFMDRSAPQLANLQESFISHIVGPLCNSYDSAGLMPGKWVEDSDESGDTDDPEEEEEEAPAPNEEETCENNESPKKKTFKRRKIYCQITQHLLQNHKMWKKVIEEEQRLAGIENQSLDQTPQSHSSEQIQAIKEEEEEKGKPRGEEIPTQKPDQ
Description: The inhibitory action of the compounds of the present invention against activities of various phosphodiesterase (PDE) isozymes were investigated using the conventional method. Each of the inhibitory action of the compounds of the present invention on the activities of phosphodiesterase type II (PDE II) partially purified from human platelets, phosphodiesterase type III […] partially purified from human platelets, phosphodiesterase type IV (PDE IV) partially purified from human U937 promonocytic leukemia cells and phosphodiesterase type V (PDE V) partially purified from human platelets were measured.

[2] = test system: eosinophil infiltration into the antigen-induced ear of a mouse; assay: Suppressive action against eosinophil infiltration into the antigen-induced ear of a mouse (eosinophil peroxidase activity); format: in vivo, BALB/c female mice; details: 3% ointment; ear tissue 24 hours after challenge; compared with positive control
Description: (§1) Seven week old BALB/c female (SPF) mice of were selected as subjects. According to a method of Tanaka, et al. (Allergy, 46, pages 42-48(1997)), egg white albumin (final concentration: 2 μg/mL) and aluminum hydroxide gel (final concentration: 10 mg/mL) were suspended in physiological saline and 0.5 mL of the suspension was administered to effect intraperitoneal sensitization on the first day of the test. On the 14th day of the test, an additional sensitization was carried out under the same conditions. Further, on the 28th day of the test, 25 μL of egg albumin (a 20 μg/mL solution in physiological saline) was intradermally administered to the right ear of a mouse to induce a swelling reaction.
The degree of eosinophil infiltration into the ear of a mouse was determined by measuring eosinophil peroxidase activity in a skin tissue homogenate and using the measurement as an index. […] This homogenate was centrifuged at 20,000 rpm for 20 minutes (using KR-20000T, Kubota) and the peroxidase activity in the supernatant fluid was measured using o-phenylenediamine dihydrochloride (Sigma) as a substrate. By measuring the absorbance of radiation having a wavelength of 492 nm, the resulting reaction curve was substantially linear relative to the dosage of the test drug and the degree of eosinophil infiltration was compared by defining the eosinophil infiltration of the control as 100%.

[3] = test system: antigen-induced flare-up reaction in a mouse; assay: Suppressive action against antigen-induced flare-up reaction in a mouse; format: in vivo, BALB/c female mice; details: 3% ointment
Description: as §1
This swelling reaction reached its peak at 4 hours after the challenge by the antigen. Even after 24 to 48 hours, a significant swelling reaction was noted as compared with the control in which antigen was merely challenged (not sensitized). […] On the contrary, the swelling from 24 to 48 hours after the challenge is thought to be the so-called delayed-type swelling reaction accompanied by infiltration of eosinophils, neutrophils and lymphocytes. In addition, a flare-up reaction having a peak at 24 hours after the challenge appeared on the ear of the antigen-induced site. Like swelling, flare-up is an important symptom of inflammation. Although the mechanism of the flare-up reaction is ambiguous, it may be a flare-up reaction of a delayed type in view of the time course of its expression. As such, this model animal in which the inflammation of both immediate and delayed types are induced is appropriate as a model animal for atopic dermatitis. In the following experiment, the effectiveness of the therapeutic agent for dermatitis according to the present invention was tested using the said model animal.
Each of a vehicle (control) and an agent for the test (the therapeutic agent for dermatitis according to the present invention or a positive control) was applied to the antigen-induced site (right auricle) of a mouse to induce a swelling reaction in accordance with Example 2 at 2 hours before and 4 hours after the challenge. The right ear was observed by naked eye and the degree of flare-up was scored according to the following standard:
1: in such a degree that a flare-up was confirmed, the color is clear red or pale red and the size was small
2: between score 3 and score 1
3: color of the flare-up was clearly red and the size of the flare-up was big

**Q.** Nc1ccc2c(=O)n(Cc3ccccc3)c(=O)n(-c3ccccc3)c2n1 [Compound 1, 7-amino-3-benzyl-1,2,3,4-tetrahydro-1-phenylpyrido[2,3-d]pyrimidin-2,4-dione] was tested. Which “suppression activity against PDE III” value [1] did it give?
**A.** 22%

**Q.** And the “eosinophil infiltration suppressing action” value [2]?
**A.** same degree as that of the steroid preparation of the positive control

**Q.** And the “Suppression Rate of flare-up score at 4 hr after Challenge” value ([3]; 4 hr after challenge)?
**A.** (0.0%)

**Q.** And the “Flare-up Score at 4 hr after Challenge” value ([3]; 4 hr after challenge, score 0-3)?
**A.** 0.8 ± 0

**Q.** And the “Suppression Rate of flare-up score at 24 hr after Challenge” value ([3]; 24 hr after challenge)?
**A.** (32.0%)

**Q.** What about the “Flare-up Score at 24 hr after Challenge” value ([3]; 24 hr after challenge, score 0-3) of the same molecule?
**A.** 1.7 ± 0.2
